# Results from article PMC12102759 (Protein Science : A Publication of the Protein Society, 2025).
# Test system: G3BP1 NFT2
# Type: binding, human
# Details: library DMS-CoV; bait G3BP1 NFT2; prey N; peptide APRITFGGPSDSTGSN; listed as aa = residue placed at this position; column sums to 1
Sequence,"DMS PSSM value, T (position 13)","DMS PSSM value, I (position 4)","DMS PSSM value, P (position 9)","DMS PSSM value, S (position 10)","DMS PSSM value, S (position 12)","DMS PSSM value, F (position 6)","DMS PSSM value, D (position 11)","DMS PSSM value, P (position 2)","DMS PSSM value, G (position 8)","DMS PSSM value, G (position 14)"
APRITFGGPSDSTGSN T13H (APRITFGGPSDSHGSN),0.0006139,,,,,,,,,
APRITFGGPSDSTGSN I4S (APRSTFGGPSDSTGSN),,0,,,,,,,,
APRITFGGPSDSTGSN P9K (APRITFGGKSDSTGSN),,,0,,,,,,,
APRITFGGPSDSTGSN S10R (APRITFGGPRDSTGSN),,,,0,,,,,,
APRITFGGPSDSTGSN S10T (APRITFGGPTDSTGSN),,,,0.01147,,,,,,
APRITFGGPSDSTGSN S12P (APRITFGGPSDPTGSN),,,,,0,,,,,
APRITFGGPSDSTGSN F6M (APRITMGGPSDSTGSN),,,,,,0,,,,
APRITFGGPSDSTGSN F6Y (APRITYGGPSDSTGSN),,,,,,0.004533,,,,
APRITFGGPSDSTGSN D11T (APRITFGGPSTSTGSN),,,,,,,0.104,,,
APRITFGGPSDSTGSN S10D (APRITFGGPDDSTGSN),,,,0,,,,,,
APRITFGGPSDSTGSN P2V (AVRITFGGPSDSTGSN),,,,,,,,0,,
APRITFGGPSDSTGSN T13N (APRITFGGPSDSNGSN),0.01901,,,,,,,,,
APRITFGGPSDSTGSN S12F (APRITFGGPSDFTGSN),,,,,0.0072,,,,,
APRITFGGPSDSTGSN G8V (APRITFGVPSDSTGSN),,,,,,,,,0.0004532,
APRITFGGPSDSTGSN P2E (AERITFGGPSDSTGSN),,,,,,,,0.7321,,
APRITFGGPSDSTGSN G14M (APRITFGGPSDSTMSN),,,,,,,,,,0.3018
APRITFGGPSDSTGSN S12G (APRITFGGPSDGTGSN),,,,,0.0009188,,,,,
APRITFGGPSDSTGSN P9S (APRITFGGSSDSTGSN),,,0.003052,,,,,,,
APRITFGGPSDSTGSN G14V (APRITFGGPSDSTVSN),,,,,,,,,,0.009945
APRITFGGPSDSTGSN I4H (APRHTFGGPSDSTGSN),,0,,,,,,,,

Sequence,"DMS PSSM value, T (position 13)","DMS PSSM value, I (position 4)","DMS PSSM value, P (position 9)","DMS PSSM value, S (position 10)","DMS PSSM value, S (position 12)","DMS PSSM value, F (position 6)","DMS PSSM value, D (position 11)","DMS PSSM value, P (position 2)","DMS PSSM value, G (position 8)","DMS PSSM value, G (position 14)"
APRITFGGPSDSTGSN G8E (APRITFGEPSDSTGSN),,,,,,,,,0.0007374,
APRITFGGPSDSTGSN G8T (APRITFGTPSDSTGSN),,,,,,,,,0.001267,
APRITFGGPSDSTGSN S12R (APRITFGGPSDRTGSN),,,,,0,,,,,
APRITFGGPSDSTGSN F6W (APRITWGGPSDSTGSN),,,,,,0,,,,
APRITFGGPSDSTGSN F6I (APRITIGGPSDSTGSN),,,,,,0,,,,
APRITFGGPSDSTGSN P2F (AFRITFGGPSDSTGSN),,,,,,,,0.0008942,,
APRITFGGPSDSTGSN G8W (APRITFGWPSDSTGSN),,,,,,,,,0,
APRITFGGPSDSTGSN D11Y (APRITFGGPSYSTGSN),,,,,,,0.02603,,,
APRITFGGPSDSTGSN P2T (ATRITFGGPSDSTGSN),,,,,,,,0,,
APRITFGGPSDSTGSN G14Y (APRITFGGPSDSTYSN),,,,,,,,,,0.003136
APRITFGGPSDSTGSN G8R (APRITFGRPSDSTGSN),,,,,,,,,0,
APRITFGGPSDSTGSN T13Y (APRITFGGPSDSYGSN),0.001423,,,,,,,,,
APRITFGGPSDSTGSN D11N (APRITFGGPSNSTGSN),,,,,,,0.02182,,,
APRITFGGPSDSTGSN I4Q (APRQTFGGPSDSTGSN),,0,,,,,,,,
APRITFGGPSDSTGSN P9G (APRITFGGGSDSTGSN),,,0.003052,,,,,,,
APRITFGGPSDSTGSN G8I (APRITFGIPSDSTGSN),,,,,,,,,0,
APRITFGGPSDSTGSN G14L (APRITFGGPSDSTLSN),,,,,,,,,,0.0229
APRITFGGPSDSTGSN F6V (APRITVGGPSDSTGSN),,,,,,0,,,,
APRITFGGPSDSTGSN S10I (APRITFGGPIDSTGSN),,,,0.2604,,,,,,
APRITFGGPSDSTGSN S12E (APRITFGGPSDETGSN),,,,,0.0009188,,,,,

# Same assay, conditions: library DMS-CoV; bait G3BP1 NFT2; prey N; peptide APRITFGGPSDSTGSN; listed as aa = residue placed at this position; column sums to 1
Sequence,"DMS PSSM value, T (position 5)","DMS PSSM value, S (position 15)","DMS PSSM value, G (position 7)","DMS PSSM value, R (position 3)"
APRITFGGPSDSTGSN T5R (APRIRFGGPSDSTGSN),0,,,
APRITFGGPSDSTGSN S15R (APRITFGGPSDSTGRN),,0,,
APRITFGGPSDSTGSN G7Q (APRITFQGPSDSTGSN),,,0.005359,
APRITFGGPSDSTGSN T5N (APRINFGGPSDSTGSN),0,,,
APRITFGGPSDSTGSN S15E (APRITFGGPSDSTGEN),,0.0004817,,
APRITFGGPSDSTGSN T5S (APRISFGGPSDSTGSN),0.002921,,,
APRITFGGPSDSTGSN G7H (APRITFHGPSDSTGSN),,,0,
APRITFGGPSDSTGSN S15N (APRITFGGPSDSTGNN),,0.001916,,
APRITFGGPSDSTGSN G7W (APRITFWGPSDSTGSN),,,0,
APRITFGGPSDSTGSN T5A (APRIAFGGPSDSTGSN),0,,,
APRITFGGPSDSTGSN G7P (APRITFPGPSDSTGSN),,,0,
APRITFGGPSDSTGSN R3S (APSITFGGPSDSTGSN),,,,0.004779
APRITFGGPSDSTGSN R3A (APAITFGGPSDSTGSN),,,,0.0016

# Same assay, conditions: library DMS-CoV; bait G3BP1 NFT2; prey N; peptide RNAPRITFGGPSDSTG; listed as aa = residue placed at this position; column sums to 1
Sequence,"DMS PSSM value, T (position 7)","DMS PSSM value, A (position 3)","DMS PSSM value, G (position 16)","DMS PSSM value, I (position 6)","DMS PSSM value, F (position 8)","DMS PSSM value, D (position 13)","DMS PSSM value, S (position 14)","DMS PSSM value, G (position 10)","DMS PSSM value, N (position 2)","DMS PSSM value, R (position 5)"
RNAPRITFGGPSDSTG T7Y (RNAPRIYFGGPSDSTG),0,,,,,,,,,
RNAPRITFGGPSDSTG A3Q (RNQPRITFGGPSDSTG),,0,,,,,,,,
RNAPRITFGGPSDSTG G16F (RNAPRITFGGPSDSTF),,,0,,,,,,,
RNAPRITFGGPSDSTG G16I (RNAPRITFGGPSDSTI),,,0,,,,,,,
RNAPRITFGGPSDSTG I6K (RNAPRKTFGGPSDSTG),,,,0,,,,,,
RNAPRITFGGPSDSTG F8P (RNAPRITPGGPSDSTG),,,,,0,,,,,
RNAPRITFGGPSDSTG D13V (RNAPRITFGGPSVSTG),,,,,,0,,,,
RNAPRITFGGPSDSTG S14G (RNAPRITFGGPSDGTG),,,,,,,0,,,
RNAPRITFGGPSDSTG F8R (RNAPRITRGGPSDSTG),,,,,0,,,,,
RNAPRITFGGPSDSTG S14M (RNAPRITFGGPSDMTG),,,,,,,0.3095,,,
RNAPRITFGGPSDSTG G10Y (RNAPRITFGYPSDSTG),,,,,,,,0,,
RNAPRITFGGPSDSTG N2S (RSAPRITFGGPSDSTG),,,,,,,,,0.05861,
RNAPRITFGGPSDSTG R5T (RNAPTITFGGPSDSTG),,,,,,,,,,0.001368
RNAPRITFGGPSDSTG N2W (RWAPRITFGGPSDSTG),,,,,,,,,0,
RNAPRITFGGPSDSTG S14L (RNAPRITFGGPSDLTG),,,,,,,0,,,
RNAPRITFGGPSDSTG G16H (RNAPRITFGGPSDSTH),,,0,,,,,,,
RNAPRITFGGPSDSTG F8I (RNAPRITIGGPSDSTG),,,,,0,,,,,
RNAPRITFGGPSDSTG A3S (RNSPRITFGGPSDSTG),,0,,,,,,,,
RNAPRITFGGPSDSTG A3H (RNHPRITFGGPSDSTG),,0,,,,,,,,
RNAPRITFGGPSDSTG G16E (RNAPRITFGGPSDSTE),,,0,,,,,,,

Sequence,"DMS PSSM value, T (position 7)","DMS PSSM value, A (position 3)","DMS PSSM value, G (position 16)","DMS PSSM value, I (position 6)","DMS PSSM value, F (position 8)","DMS PSSM value, D (position 13)","DMS PSSM value, S (position 14)","DMS PSSM value, G (position 10)","DMS PSSM value, N (position 2)","DMS PSSM value, R (position 5)"
RNAPRITFGGPSDSTG G10M (RNAPRITFGMPSDSTG),,,,,,,,0,,
RNAPRITFGGPSDSTG I6A (RNAPRATFGGPSDSTG),,,,0,,,,,,
RNAPRITFGGPSDSTG D13I (RNAPRITFGGPSISTG),,,,,,0,,,,
RNAPRITFGGPSDSTG A3N (RNNPRITFGGPSDSTG),,0,,,,,,,,
RNAPRITFGGPSDSTG G10E (RNAPRITFGEPSDSTG),,,,,,,,0,,
RNAPRITFGGPSDSTG G10N (RNAPRITFGNPSDSTG),,,,,,,,0,,
RNAPRITFGGPSDSTG R5L (RNAPLITFGGPSDSTG),,,,,,,,,,0.01198
RNAPRITFGGPSDSTG S14K (RNAPRITFGGPSDKTG),,,,,,,0,,,
RNAPRITFGGPSDSTG A3D (RNDPRITFGGPSDSTG),,0.1526,,,,,,,,
RNAPRITFGGPSDSTG N2H (RHAPRITFGGPSDSTG),,,,,,,,,0,
RNAPRITFGGPSDSTG G10S (RNAPRITFGSPSDSTG),,,,,,,,0,,
RNAPRITFGGPSDSTG N2A (RAAPRITFGGPSDSTG),,,,,,,,,0,
RNAPRITFGGPSDSTG S14N (RNAPRITFGGPSDNTG),,,,,,,0.6905,,,
RNAPRITFGGPSDSTG T7N (RNAPRINFGGPSDSTG),0,,,,,,,,,
RNAPRITFGGPSDSTG T7G (RNAPRIGFGGPSDSTG),0,,,,,,,,,
RNAPRITFGGPSDSTG G10Q (RNAPRITFGQPSDSTG),,,,,,,,0,,
RNAPRITFGGPSDSTG R5E (RNAPEITFGGPSDSTG),,,,,,,,,,0.1354
RNAPRITFGGPSDSTG F8A (RNAPRITAGGPSDSTG),,,,,0,,,,,
RNAPRITFGGPSDSTG D13Y (RNAPRITFGGPSYSTG),,,,,,0,,,,

# Same assay, conditions: library DMS-CoV; bait G3BP1 NFT2; prey N; peptide RNAPRITFGGPSDSTG; listed as aa = residue placed at this position; column sums to 1
Sequence,"DMS PSSM value, P (position 11)","DMS PSSM value, S (position 12)","DMS PSSM value, P (position 4)","DMS PSSM value, T (position 15)","DMS PSSM value, G (position 9)"
RNAPRITFGGPSDSTG P11K (RNAPRITFGGKSDSTG),0,,,,
RNAPRITFGGPSDSTG S12K (RNAPRITFGGPKDSTG),,0,,,
RNAPRITFGGPSDSTG S12D (RNAPRITFGGPDDSTG),,0,,,
RNAPRITFGGPSDSTG P4T (RNATRITFGGPSDSTG),,,0,,
RNAPRITFGGPSDSTG T15I (RNAPRITFGGPSDSIG),,,,1,
RNAPRITFGGPSDSTG P11W (RNAPRITFGGWSDSTG),0,,,,
RNAPRITFGGPSDSTG S12T (RNAPRITFGGPTDSTG),,0,,,
RNAPRITFGGPSDSTG G9T (RNAPRITFTGPSDSTG),,,,,0
RNAPRITFGGPSDSTG S12R (RNAPRITFGGPRDSTG),,0,,,
RNAPRITFGGPSDSTG G9E (RNAPRITFEGPSDSTG),,,,,0
RNAPRITFGGPSDSTG P4N (RNANRITFGGPSDSTG),,,0,,
